The test deals with M109 cells. The experiment in a line: Survival of mice with M109 cells implanted intraperitoneally close to the liver. Format: in vivo. The conditions noted are these: Example 16; folate-FITC 1500 nmoles/kg, IFN-α 7.5×10^4 units/day days 7, 8, 9, 11, 14; FITC-KLH immunized; 5 mice per group; PBS 17 days.

Experimental: Furthermore, in an effort to reduce the time required to obtain long-term survival data, the tumor cells were implanted intraperitoneally close to the liver. […] Aminofluorescein was injected along with the various cytokine combinations as a control because this compound is not linked to folate and will not retarget anti-fluorescein antibodies to tumor cells.
Each mouse was injected with 0.2 ml of a 1:10 dilution of the antibody stock solution on days 1, 4, 9, and 14 after tumor implantation to achieve NK cell depletion.
Additionally, the animals were immunized with FITC-labeled keyhole limpit hemocyanin (KLH) rather than FITC-labeled BSA.
Aminofluorescein was injected along with the IL-2, IFN-α cytokine combination as a control because this compound is not linked to folate and will not retarget anti-fluorescein antibodies to tumor cells.
Additionally, the animals were immunized with DNP-labeled keyhole limpit hemocyanin (KLH).
Additionally, the animals (5 mice per group) were immunized with FITC-labeled keyhole limpit hemocyanin (KLH) rather than FITC-labeled BSA.

The substance IFN-α registered a median survival time of 17 days.

The values above are taken from patent US8105608B2, “Method of treatment using ligand-immunogen conjugates” (Purdue Research Foundation, priority 2000, dated 2012).
